The record followed here is patent US6593333B1, “Substituted anilino-quinazoline (or quinoline) compounds and use thereof” (Astrazeneca AB, priority 1998, dated 2003).

The target in one experiment is T1, p38α (Homo sapiens, UniProt Q16539).
T1 construct: c-myc (N); 6His (N); made in house; host or cells: E. coli (PET vectors)
In words: In vitro enzyme assay, p38α kinase. It counts as biochemical. The method, then: The ability of compounds of the invention to inhibit the enzyme p38 kinase was assessed. Activity of particular test compounds against each of the p38α and p38β isoforms of the enzyme was determined.
Human recombinant MKK6 (GenBank Accesion Number G1209672) was isolated from Image clone 45578 (Genomics, 1996, 33, 151) and utilised to produce protein in the form of a GST fusion protein in a pGEX vector using analogous procedures to those disclosed by J. Han et al., Journal of Biological Chemistry, 1996, 271, 2886-2891. p38α (GenBank Accession Number G529039) and p38β (GenBank Accession Number G1469305) were isolated by PCR amplification of human lymphoblastoid cDNA (GenBank Accession Number GM1416) and human foetal brain cDNA [synthesised from mRNA (Clontech, catalogue no. 6525-1) using a Gibco superscript cDNA synthesis kit] respectively using oligonucleotides designed for the 5′ and 3′ ends of the human p38α and p38β genes using analogous procedures to those described by J. Han et al., Biochimica et Biophysica Acta, 1995, 1265, 224-227 and Y. Jiang et al., Journal of Biological Chemistry, 1996, 271, 17920-17926.
Both p38 protein isoforms were expressed in e coli in PET vectors. Human recombinant p38α and p38β isoforms were produced as 5′ c-myc, 6His tagged proteins. Both MKK6 and the p38 proteins were purified using standard protocols: the GST MKK6 was purified using a glutathione sepharose column and the p38 proteins were purified using nickel chelate columns.
The p38 enzymes were activated prior to use by incubation with MKK6 for 3 hours at 30° C. The unactivated coli-expressed MKK6 retained sufficient activity to fully activate both isoforms of p38. The activation incubate comprised p38α (10 μl of 10 mg/ml) or p38β (10 μl of 5 mg/ml) together with MKK6 (10 μl of 1 mg/ml), ‘Kinase buffer’ [100 μl; pH 7.4 buffer comprising Tris (50 mM), EGTA (0.1 mM), sodium orthovanadate (0.1 mM) and β-mercaptoethanol (0.1%)] and MgATP (30 μl of 50 mM Mg(OCOCH3)2 and 0.5 mM ATP). This produced enough activated p38 enzyme for 3 Microtiter plates.
Test compounds were solubilised in DMSO and 10 μl of a 1:10 diluted sample in ‘Kinase Buffer’ was added to a well in a Microtiter plate. […] The precipitated protein was phosphorylated by p38 kinase and test compounds were assessed for their ability to inhibit this phosphorylation. The plates were filtered using a Canberra Packard Unifilter and washed with 2% TCA, dried overnight and counted on a Top Count scintillation counter.
Test compounds were tested initially at a single dose and active compounds were retested to allow IC50 values to be determined.

For experiment [1], the system named is TNFα production, human peripheral blood mononuclear cells. Briefly: PBMC test: inhibition of LPS-stimulated TNFα production. It counts as cell-based. The method, then:
The ability of compounds of this invention to inhibit TNFα production was assessed by using human peripheral blood mononuclear cells which synthesise and secrete TNFα when stimulated with lipopolysaccharide.
Peripheral blood mononuclear cells (PBMC) were isolated from heparinised (10 units/ml heparin) human blood by density centrifugation (Lymphoprep™; Nycomed). Mononuclear cells were resuspended in culture medium [RPMI 1640 medium (Gibco) supplemented with 50 units/ml penicillin, 50 μg/ml streptomycin, 2 mM glutamine and 1% heat-inactivated human AB serum (Sigma H-1513)]. Compounds were solubilised in DMSO at a concentration of 50 mM, diluted 1:100 in culture medium and subsequently serial dilutions were made in culture medium containing 1% DMSO. PBMCs (2.4×10^5 cells in 160 μl culture medium) were incubated with 20 μl of varying concentrations of test compound (triplicate cultures) or 20 μl culture medium containing 1% DMSO (control wells) for 30 minutes at 37° C. in a humidified (5%CO2/95% air) incubator (Falcon 3072; 96 well flat-bottom tissue culture plates). 20 μl lipopolysaccharide [LPS E.Coli 0111:B4 (Sigma L-4130), final concentration 10 μg/ml] solubilised in culture medium was added to appropriate wells. 20 μl culture medium was added to “medium alone” control wells. Six “LPS alone” and four “medium alone” controls were included on each 96 well plate. Varying concentrations of a known TNFα inhibitor were included in each test, i.e. an inhibitor of the PDE Type IV enzyme (for example see Semmler, J. Wachtel. H and Endres, S., Int. J. Immunopharmac. (1993), 15(3), 409-413) or an inhibitor of pro TNFα convertase (for example, see McGeehan, G. M. et al. Nature (1994) 370, 558-561). Plates were incubated for 7 hours at 37° C. (humidified incubator) after which 100 μl of the supernatant was removed from each well and stored at −70° C. (96 well round-bottom plates; Corning 25850). TNFα levels were determined in each sample using a human TNFα ELISA (see WO92/10190 and Current Protocols in Molecular Biology, vol 2 by Frederick M. Ausbel et al., John Wiley and Sons Inc.).
% inhibition=(LPS alone−medium alone)−(test concentration−medium alone)/(LPS alone−medium alone)×100

T1 sequence (Q16539 whole entry): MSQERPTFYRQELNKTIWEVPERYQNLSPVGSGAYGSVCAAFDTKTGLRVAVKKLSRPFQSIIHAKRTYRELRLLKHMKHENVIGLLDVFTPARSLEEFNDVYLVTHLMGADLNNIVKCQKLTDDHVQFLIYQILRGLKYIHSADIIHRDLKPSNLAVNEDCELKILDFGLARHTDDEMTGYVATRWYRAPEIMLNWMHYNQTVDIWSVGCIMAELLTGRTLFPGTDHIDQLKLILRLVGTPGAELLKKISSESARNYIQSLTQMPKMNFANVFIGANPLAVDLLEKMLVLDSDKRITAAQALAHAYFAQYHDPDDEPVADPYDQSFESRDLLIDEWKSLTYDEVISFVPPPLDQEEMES

Turning to `COc1cc2ncnc(Nc3ccc(C)c(NC(=O)c4ccccc4)c3)c2cc1OC` [Example 11], the IC50 (usually the midpoint of a concentration-inhibition curve) against p38α was determined as 1300 nM; in experiment [1], 3600 nM.
For the molecule `COc1cc2c(Nc3cc(NC(=O)c4cccc(N(C)C)c4)ccc3C)ncnc2c(OC)c1OC` [Example 24, 4-[2-Methyl-5-(3-dimethylaminobenzamido)anilino]-6,7,8-trimethoxyquinazoline], the 50% inhibitory concentration (IC50) was found to be 200 nM at p38α and 5200 nM in experiment [1].
In the case of `COc1cc2c(Nc3cc(NC(=O)c4cccc(N(C)C)c4)ccc3C)ncnc2cc1OCCCN1CCOCC1` [Example 38], the 50% inhibitory concentration (IC50) at p38α stood at 100 nM; in experiment [1], 2000 nM.
In the case of `CCC(=O)Nc1cc(Nc2ncnc3cc(OC)c(OC)cc23)ccc1F` [Example 14], the IC50 against p38α was determined as 3400 nM; in experiment [1], 3200 nM.
